# According to PubChem BioAssay (NCI):
# Values joined by “and” are separate entries in the source; they are usually repeats but may differ in a detail not shown here. Identical values can stand only once.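 Grown in 96-well plates, cells were treated for 48 hours with each compound at five concentrations. Insufficient inhibition: endpoint recorded as highest concentration tested. GI50: concentration for 50% inhibition of growth. Definition used: TGI = concentration required for complete inhibition of growth.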
# Key:
# Assay in all cases: growth of human tumour cells (NCI), 48 h
# [1] = tested on: SK-MEL-2 melanoma
# [2] = tested on: UACC-257 melanoma
# [3] = tested on: RXF 393 renal
# [4] = tested on: MDA-MB-231 breast
# [5] = tested on: LOX IMVI melanoma
# [6] = tested on: OVCAR-3 ovarian
# [7] = tested on: SF-539 CNS
# [8] = tested on: A549 NSCLC
# [9] = tested on: K-562 leukemia
# [10] = tested on: COLO 205 colon
SMILES,TGI [1],TGI [2],TGI [3],TGI [4],TGI [5],TGI [6] [µM],TGI [7],TGI [8],TGI [9],TGI [10],GI50 [1] [µM],GI50 [2] [µM],GI50 [3],GI50 [5] [µM],GI50 [6] [µM],GI50 [7] [µM],GI50 [8] [µM],GI50 [9] [µM],GI50 [10] [µM]
CC(C)/C=C1\CCC(CN(C)C)C1=O (centres undefined),14.3 µM,10.8 µM,1.31 µM,3.01 µM,11.9 µM,7.97,19.8 µM,17.2 µM,7.85 µM,1.41 µM,,,,,,,,,
FC(F)(F)c1ccc(C2ON=C(c3ccccc3)N2C23CC4CC(CC(C4)C2)C3)cc1 (centres undefined),> 10 µM,> 10 µM,> 10 µM,> 10 µM,> 10 µM,> 10,> 10 µM,> 10 µM,> 10 µM,> 10 µM,,,,,,,,,
CC(C)OC(=O)c1ccc(NCc2cc(O)ccc2O)cc1,27.8 µM,26.2 µM,5.79 µM,9.59 µM,15.9 µM,4.71,3.34 µM,> 67.8 µM,6.98 µM,9.48 µM,,,,,,,,,
COc1ccc(C2c3cc4c(cc3OC(NNc3ccccc3)C2C)OCO4)cc1 (centres undefined),98.1 µM,86.3 µM,54.3 µM,> 100 µM,> 100 µM,39.8,6.55 µM,> 100 µM,> 100 µM,20.5 µM,,,,,,,,,
CCOC1OC(CO)C(O)CC1n1ccc(=O)[nH]c1=O (centres undefined),> 100 µM,> 100 µM,> 100 µM,> 100 µM,> 100 µM,> 100,> 100 µM,> 100 µM,> 100 µM,> 100 µM,,,,,,,,,
CCOC(=O)N/N=C(/N)c1cccc(Br)c1,> 100 µM,> 100 µM,> 100 µM,> 100 µM,> 100 µM,> 100,> 100 µM,> 100 µM,> 100 µM,> 100 µM,,,,,,,,,
Cc1cccc(C2ON=C(c3ccccc3)N2C23CC4CC(CC(C4)C2)C3)c1 (centres undefined),> 10 µM,> 10 µM,> 10 µM,> 10 µM,> 10 µM,> 10,> 10 µM,> 10 µM,> 10 µM,> 10 µM,,,,,,,,,
CCS(=O)C(=O)N(O)c1ccc(Cl)cc1 (centres undefined),56.7 µM,75.8 µM,41.6 µM,> 100 µM,53.1 µM,> 100,52.8 µM,> 100 µM,39.9 µM,> 100 µM,,,,,,,,,
CCOC(=O)C(NC(=O)OCc1ccccc1)C(=O)O (centres undefined),> 100 µM,> 100 µM,> 100 µM,> 100 µM,> 100 µM,> 100,> 100 µM,> 100 µM,> 100 µM,> 100 µM,,,,,,,,,
Clc1ccc(Cl)c(N=Nc2cc3c4c(c2)CCN4CCC3)c1,> 10 µM,> 10 µM,> 10 µM,> 10 µM,> 10 µM,> 10,> 10 µM,> 10 µM,> 10 µM,> 10 µM,,,,,,,,,
CCN(CC)CCCNc1c2c(Cl)cc(Cl)cc2nc2nc(=O)[nH]c(C)c12,> 100 µM,> 100 µM,> 100 µM,33.8 µM,48.5 µM,> 100,> 100 µM,> 100 µM,> 100 µM,> 100 µM,,,,,,,,,
CC(=O)CCCCn1c(=O)c2c(nc(Br)n2C)n(C)c1=O,> 100 µM,> 100 µM,> 100 µM,> 100 µM,> 100 µM,> 100,> 100 µM,> 100 µM,> 100 µM,> 100 µM,,,,,,,,,
COC1(CC[C@@H](C)COC2OC(CO)C(O)C(O)C2O)O[C@H]2C[C@H]3[C@@H]4CC=C5C[C@@H](OC6OC(CO)C(OC7OC(C)C(O)C(O)C7O)C(O)C6OC6OC(C)C(O)C(O)C6O)CC[C@]5(C)[C@H]4CC[C@]3(C)[C@H]2[C@@H]1C (some centres undefined),8.5 µM,8.38 µM,5.45 µM,6.66 µM,1.99 µM,6.64,2.86 µM,4.22 µM,16 µM,19.2 µM,3.26,2.56,1.92 µM,0.645,2.04,1.22,1.55,5.12,2.99
O=C1N/C(=N\N=C\c2ccccc2)C(c2ccccc2)O1 (centres undefined),> 100 µM,> 100 µM,> 100 µM,> 100 µM,> 100 µM,> 100,> 100 µM,> 100 µM,> 100 µM,> 100 µM,,,,,,,,,
CCc1n[nH]c(=O)n1CCCCCCCCn1c(CC)n[nH]c1=O,> 100 µM,> 100 µM,> 100 µM,> 100 µM,> 100 µM,> 100,> 100 µM,> 100 µM,> 100 µM,> 100 µM,,,,,,,,,
O=C1Oc2ccccc2C1C/C(=N\Nc1ccccc1)c1ccccc1O (centres undefined),> 100 µM,90.5 µM,> 100 µM,> 100 µM,> 100 µM,> 100,> 100 µM,> 100 µM,,32.8 µM,,,,,,,,,
O=C(O)c1nc2ccccc2nc1Nc1ccc(Cl)c(Cl)c1,,> 100 µM,69.3 µM,90 µM,> 100 µM,37.2,43.7 µM,> 100 µM,> 100 µM,82.6 µM,,,,,,,,,

SMILES,TGI [1],TGI [2],TGI [3],TGI [4],TGI [5],TGI [6] [µM],TGI [7],TGI [8],TGI [9],TGI [10],GI50 [1] [µM],GI50 [2] [µM],GI50 [3],GI50 [5] [µM],GI50 [6] [µM],GI50 [7] [µM],GI50 [8] [µM],GI50 [9] [µM],GI50 [10] [µM]
CC1(C)C2CCC3CC(CCC#N)CCC3C21C#N (centres undefined),> 100 µM,> 100 µM,> 100 µM,> 100 µM,> 100 µM,> 100,> 100 µM,> 100 µM,> 100 µM,> 100 µM,,,,,,,,,
O=C1NC2NC3NC(=O)NC3NC2N1 (centres undefined),> 100 µM,> 100 µM,> 100 µM,> 100 µM,> 100 µM,> 100,> 100 µM,> 100 µM,> 100 µM,> 100 µM,,,,,,,,,
COc1nc(N=P(c2ccccc2)(c2ccccc2)c2ccccc2)cc(=O)n1C,> 100 µM,> 100 µM,> 100 µM,> 100 µM,> 100 µM,> 100,> 100 µM,> 100 µM,> 100 µM,> 100 µM,,,,,,,,,
CCCCOCCOCCOC1=CC(=O)c2c(O)ccc(O)c2C1=O,3.52 µM,2.97 µM,3.63 µM,3.86 µM,3.39 µM,3,3.46 µM,3.43 µM,6.25 µM,2.74 µM,,,,,,,,,
CN(C)c1ccc(/C=C/C(=O)c2ccc(O)cc2)cc1,> 49.1 µM,> 92.4 µM,> 100 µM,> 91.5 µM,45.1 µM,9.37,13.5 µM,> 100 µM,8.38 µM,26.6 µM,,,,,,,,,
COC(=O)c1ccc2c(c1)CC1(C2)Cc2cc3c(cc2C1)CCC3,> 100 µM,> 100 µM,> 100 µM,> 100 µM,> 100 µM,> 100,> 100 µM,> 100 µM,> 100 µM,,,,,,,,,,
O=c1[nH]/c(=C/c2ccc3c(c2)OCO3)c(=O)[nH]/c1=C/c1ccc2c(c1)OCO2,> 10 µM,> 10 µM,> 10 µM,> 10 µM,> 10 µM,> 10,> 10 µM,> 10 µM,> 10 µM,> 10 µM,,,,,,,,,
COc1ccc(C(O)/C(=N/N)c2nc3ccc(Cl)cc3[nH]c2=O)cc1 (centres undefined),> 100 µM,> 100 µM,> 100 µM,> 100 µM,> 100 µM,> 100,> 100 µM,> 100 µM,> 100 µM,> 100 µM,,,,,,,,,
CNC(=O)c1n[nH]n(C2CCCCC2)c1=S,> 100 µM,> 100 µM,> 100 µM,> 100 µM,> 100 µM,37,> 100 µM,> 100 µM,> 100 µM,> 100 µM,,,,,,,,,
O=C/C(=C1/C=Cc2cc([N+](=O)[O-])ccc2S1)c1ccccc1,> 100 µM,> 100 µM,> 100 µM,> 100 µM,> 100 µM,> 100,> 100 µM,> 100 µM,> 100 µM,> 100 µM,,,,,,,,,
CC1=NN=C(C)C1N=Nc1ccc2nc(C)[nH]c2c1,36.3 µM,> 100 µM,55.5 µM,> 88.2 µM,> 63.9 µM,> 73.6,> 88.6 µM,> 100 µM,> 100 µM,> 100 µM,,,,,,,,,
CC(C)Oc1c(C2(c3ccccc3)SCCCS2)c(=O)c1=O,> 100 µM,> 100 µM,> 100 µM,> 100 µM,> 100 µM,> 100,> 100 µM,> 100 µM,,> 100 µM,,,,,,,,,
CC1=CC(=O)CC2(C)CCC(C(C)CC(=O)CC(C)C)CC12OO (centres undefined),37.9 µM and 31.9 µM,31.5 µM and 33 µM,26.2 µM and > 100 µM,29.5 µM and 32.7 µM,31.5 µM and 27.9 µM,,28.9 µM and 30 µM,30 µM and 31.1 µM,75 µM and 31.9 µM,27.8 µM and 34.8 µM,,,12.5 µM and 32.6 µM,,,,,,
O=C1CCN2c3ccccc3[C@H]3Cc4cccc(c4[C@@H]2C3)CCO1,> 100 µM,> 100 µM,> 100 µM,> 100 µM,> 100 µM,86,> 100 µM,> 100 µM,80.7 µM,> 100 µM,,,,,,,,,
CC1(C)CCN2C(=O)C34CCCC3CC21S4 (centres undefined),> 100 µM,> 100 µM,> 100 µM,> 100 µM,> 100 µM,> 100,> 100 µM,> 100 µM,> 100 µM,> 100 µM,,,,,,,,,
COc1ccc(/C=c2\c(=O)[nH]c3nc4ccccc4c(=O)n23)cc1,> 100 µM,> 100 µM,> 100 µM,> 100 µM,> 100 µM,> 100,> 100 µM,> 100 µM,,> 100 µM,,,,,,,,,
